Here are results for twelve compounds from US20100008874A1, “SUBSTITUTED PYRIMIDINES, PROCESS FOR THEIR PRODUCTION AND THEIR USE AS EFFECTIVE ABSORBENTS OF UV IRRADIATION” (YISSUM RESEARCH DEVELOPMENT COMPANY, priority 2006, published 2010).

Structures are written as SMILES. Read-outs that look alike come from different tables or passages of the source. Marks after values point to notes of the source that are not given here. A value given as a limit tells only on which side of the number the result lay.

A short description of data set [1]: Autoxidation rate in air-saturated phosphate buffer, followed spectrophotometrically. The class given is physicochemical. Conditions: air saturated 0.05M phosphate buffer pH 7.0, 1 mM EDTA, 25° C., [Pyrimidine] = 2.4 × 10^−5 M. The protocol: The autoxidation rate was measured in air-saturated buffer phosphate solutions 0.05 M at pH 7 and 25° C. The solutions contained 1 mM EDTA to minimize catalysis of the oxidation by trace metallic cations. The rate of autoxidation was measured spectrophotometrically by following the decrease of the UV absorbance of the pyrimidines at their respective λ max (Table 1).
This is probably the reason why there was no transient appearance of an absorption maximum around 240-255 nm which is assumed to be due to the intermediacy of oxidized pyrimidine B (Scheme 1), and was found in the autoxidation of isouramil, divicine and related systems. The decrease in the absorbance of 8a-c, followed a reasonably pseudo first order reaction in the pyrimidine concentration (the dissolved oxygen concentration was at least 13 times higher). However, it was found (Winterbourn, C. C.; Cowden, W. B.; Sutton, H. Biochem. Pharmacol. 1989, 38, 611-618) that the reaction mechanism is complex and involves radical intermediates and chain reactions and that the dependency on the pyrimidine concentration is far from simple. Therefore, in accordance with the present invention a different approach was adapted that uses the measured initial reaction rates for checking the quantitative dependency of the oxidation rate on the electron releasing power of the substituent in the C2 position. Table 1 also contains the initial rates for the reactions of isouramil and divicine (8d and 8e) calculated from Winterbourn, C. C.; Cowden, W. B.; Sutton, H. Biochem. Pharmacol. 1989, 38, 611-618; (aerated 0.05M phosphate buffer, pH 7, 23° C., 50 nM DTPA and similar to our pyrimidine concentrations) using ΔH of 60.2 kJ/mole (Chevion et al.^5a).

Data set [2] can be described thus: UV absorption spectrum (spectral properties). Type of data set: physicochemical. Conditions: footnote b: this work.
For data set [3] the following is noted: footnote d: reference; cited from earlier work.
The conditions of data set [4]: calculated from literature (aerated 0.05M phosphate buffer, pH 7, 23° C., 50 nM DTPA) using ΔH of 60.2 kJ/mole; cited from earlier work.
For data set [5], the system named is murine erythroleukemic cells. Conditions: cited from earlier work.
In data set [6] the test system is tumor necrosis factor (TNF). The settings on record: in-vitro and in-vivo; cited from earlier work.

The term melting point denotes the temperature of the solid-liquid transition.

Compound `Cc1ncc(OC2CCCCO2)c(=O)[nH]1` (centres unmarked) [5a, 2-Methyl-5-(tetrahydro-2H-pyran-2-yloxy)pyrimidin-4(3H)-one] yielded a melting point of 149 to 151 °C.
Consider `O=c1[nH]c(S)ncc1OC1CCCCO1` (centres unmarked) [5c, 2-Mercapto-5-(tetrahydro-pyran-2-yloxy)-3H-pyrimidin-4-one], for which the melting point is greater than 300 °C.
In turn, `Cc1ncc(O)c(=O)[nH]1` [6a, 5-Hydroxy-2-methylpyrimidin-4(3H)-one] displayed a melting point greater than 300 °C.
On to `O=c1[nH]c(S)ncc1O` [6c, 5-Hydroxy-2-mercapto-3H-pyrimidin-4-one], for which the melting point is greater than 300 °C.
Regarding `Cc1nc(N=Nc2ccccc2)c(O)c(=O)[nH]1` [7a, 5-Hydroxy-2-methyl-6-phenylazo-3H-pyrimidin-4-one], the melting point lay in the range of 243 to 245 °C.
Compound `O=c1[nH]cnc(N=Nc2ccccc2)c1O` [7b, 5-Hydroxy-6-phenylazo-3H-pyrimidine-4-one] came in with a melting point of 244 to 245 °C.
The same measure, in the same setting: in the case of `CSc1nc(N=Nc2ccccc2)c(O)c(=O)[nH]1` [7c, 5-Hydroxy-2-methylsulfanyl-6-phenylazo-3H-pyrimidin-4-one] it was 213 to 215 °C.
Regarding `Cc1nc(N)c(O)c(=O)[nH]1` [CH3, 6-Amino-5-hydroxy-2-methylpyrimidin-4(3H)-one], the melting point was greater than 300 °C. Besides, the “Initial rate (autoxidation)” value in data set [1] is 0.0015^c μM/sec. Also, in data set [2], the “ε at λmax” value is given as 16200 and the λmax came out at 275 nm.
On the same counts, the results for `Nc1nc[nH]c(=O)c1O` [H, 6-Amino-5-hydroxypyrimidin-4(3H)-one] are greater than 300 °C, 0.00087^c μM/sec, 13000 and 274 nm.
Turning to `Nc1nc(N)c(O)c(O)n1` [NH2, 2,6-diamino-5-hydroxypyrimidin-4-one], in data set [3], the “ε at λmax” value is 9800 and the λmax was 285 nm. The “Initial rate (autoxidation)” value in data set [4] is recorded as 0.061^e μM/sec. In data set [5], the “cytotoxicity in combination with carboplatin” value is on record as “synergistic cytotoxicity”. Moreover, the “effect on lipopolysaccharide-induced release of TNF” value in data set [6] was “enhances”.
Take `Nc1nc(O)[nH]c(=O)c1O` [OH, 6-amino-2,5-dihydroxypyrimidin-4-one]: in data set [3], the “ε at λmax” value was 14100 and the λmax is recorded as 280 nm. Also, the “Initial rate (autoxidation)” value in data set [4] is 0.067^e μM/sec.
As for `CSc1nc(N)c(O)c(=O)[nH]1` [SCH3, 6-Amino-5-hydroxy-2-(methylthio)pyrimidin-4-(3H)-one], the “Initial rate (autoxidation)” value in data set [1] was 0.0097^c μM/sec. Also, in data set [2], the “ε at λmax” value is 10800 and the λmax is recorded as 286 nm.
